Measurements: patent publication US20090304674A1, “METHODS FOR TREATING DISEASE BY REGULATING CLL CELL SURVIVAL” (priority 2005, published 2009)
“Also recorded” adds a separate entry of the source.

Tests used:
[1] = tested on: normal B cells of healthy donors; assay: Viability of isolated normal B cells of healthy donors with or without rhBAFF and UTC; assay type: cell-based, human; conditions: UTC 10 μM, 48 hours
Experimental: CD19+ B cells of healthy donors were isolated from the buffy coat of blood samples collected from adult volunteers at the San Diego Blood Bank (San Diego, Calif.), as described.
Isolated blood mononuclear cells of patients with CLL were incubated with saturating amounts of Dynabeads coated with anti-CD2 or anti-CD14 mAbs (Dynal A.S. Oslo, Norway). Beadbound cells were removed with a strong magnetic field. Following depletion, less than 0.5% of cells were CD2+ or CD14+, whereas more than 99% were CD19+, as assessed via flow cytometry (data not shown). Peripheral normal CD19+ B cells of healthy donors were purified from the buffy coat of blood samples using CD19 Dynabeads and Detach A Beads (Dynal), following the manufacturer's instructions.
Freshly thawed CLL B cells were cultured at the concentration of 1×10^6/mL under various conditions. Determination of CLL cell viability in this study was based on the analysis of mitochondrial transmembrane potential (Δψm) using 3,3′-dehexyloxacarbocyamine iodine (DiOC6) and cell membrane permeability to PI, as described. […] The cells then were incubated at 37° C. for 15 minutes and analyzed within 30 minutes by flow cytometry using a FACSCalibur (Becton Dickinson). Fluorescence was recorded at 525 nm (FL-1) for DiOC6 and at 600 nm (FL-3) for PI.

[2] = tested on: canonical NF-κB1 pathway in CLL B cells; assay: Immunoblot of canonical NF-κB1 pathway activation (IκBα degradation/phosphorylation, p65 nuclear translocation) in CLL B cells; assay type: cell-based, human; conditions: rhBAFF 50 ng/ml, 24 hours, UTC pre-incubated 1 hour
Experimental: Cell lysates were prepared with RIPA buffer (10 mM Tris (pH 7.4), 150 mM NaCl, 1% Triton x 100, 1% deoxycholate, 0.1% SDS, 5 mM EDTA), containing 1 mM PMSF, 0.28 TIU/ml aprotinin, 50 μg/ml leupeptin, 1 mM benzamidine, 0.7 μg/ml pepstatin. Lysates were normalized for total protein (20 μg), subjected to SDS-PAGE (4-15% gradient gels, Bio-Rad, Hercules, Calif.) and immunoblot assay. We incubated the blots with secondary antibodies that were conjugated with horseradish peroxidase. Blots then were prepared for enhanced chemiluminescence (ECL) detection system (Amersham, Little Chalfont, Buckinghamshire, UK) and subsequent autoradiography with Super RX film (Fuji, Tokyo, Japan). The mouse mAb against APRIL (APRIL8) was from Alexis Biochemicals. The mouse mAb against inhibitor of kappa B-α (IκκBα was from Imgenex (San Diego, Calif.). The antibodies against anti-phosho-MAP kinase Erk1/2 and anti-MAP kinase Erk1/2-CT were purchased from Upstate Biotechnology. Antibodies against AKT or phospho-AKT (Ser473) were from Cell Signaling (Beverly, Mass.). Rabbit polyclonal antibodies (Mcl-1, Bcl-2, and Bax) were raised against synthetic peptides.21 Also primary antibodies included β-actin (Sigma Immunochemicals, St Louis, Mo.). Anti-p52 and anti-p65 antibodies were purchased from Upstate Biotechnology.
For fractionation experiments, cells were collected by centrifugation and washed with PBS. The cell pellet containing 5×10^6 cells was suspended in 100 μl of hypotonic buffer (50 mM Tris (pH7.4), 5 mM EDTA, 10 mM NaCl, 0.05% NP-40, 1 mM PMSF, 10 μg/ml Aprotinin, 10 μg/ml Leupeptin, 10 μg/ml Pepstatin, 10 mM β-Glycerophosphate, 1 mM Na-Vanadate, 1 mM NaF). After 10 minutes the lysate was spun and the supernatant was collected as cytoplasmic lysates. The pellet was washed 5 times in hypotonic buffer containing 0.1% NP-40. The remaining pellet was suspended in 100 μl RIPA buffer containing protease and phosphatase inhibitors. After an appropriate amount of 3× sample buffer (200 mM Tris (pH 6.8), 30 mM EDTA, 30% Glycerol, 6% SDS) was added, the sample was boiled for 10 minutes, spun for 10 minutes and the supernatant was recovered as nucleus lysates. Anti-NF kappa B p52 and p65 were purchased from Upstate Biotechnology. Anti-SP-1 was purchased from Santa Cruz Biotechnology (Santa Cruz, Calif.).
Cell lysates were prepared with radioimmunoprecipitation assay (RIPA) buffer (10 mM Tris [pH 7.4], 150 mM NaCl, 1% Triton X-100, 0.1% deoxycholate, 0.1% SDS, 5 mM EDTA), containing 1× complete protease inhibitor cocktail (Roche diagnostics), 1 mM sodium fluoride (NaF), and 1 mM sodium vanadate (Na3VO4). Lysates were normalized for total protein (25 μg) and subjected to SDS-PAGE (4-15% gradient gels, Bio-Rad, Hercules, Calif.) and immunoblot assay. We incubated the blots with secondary antibodies that were conjugated with horseradish peroxidase. Blots then were prepared for enhanced chemiluminescence (ECL) detection system (Amersham, Little Chalfont, United Kingdom) and subsequent autoradiography with Super RX film (Fuji, Tokyo, Japan).
For fractionation experiments, cells were collected by centrifugation and washed with PBS. The cell pellet containing 5×10^6 cells was suspended in 100 μl of hypotonic buffer (50 mM Tris [pH7.4], 5 mM EDTA, 10 mM NaCl, 0.05% Nonidet P40 [NP-40]), containing 1× complete protease inhibitor cocktail, 1 mM NaF, and 1 mM Na3VO4. After 10 minutes, the lysate was spun and the supernatant was collected as cytoplasmic lysates. […]

IKK-2 (IKKβ) = target: T1, IKK-2 (IKKβ) (Homo sapiens, UniProt O14920); conditions: reported by Podolin and colleagues, cited from earlier work
T1 sequence (O14920 1-756): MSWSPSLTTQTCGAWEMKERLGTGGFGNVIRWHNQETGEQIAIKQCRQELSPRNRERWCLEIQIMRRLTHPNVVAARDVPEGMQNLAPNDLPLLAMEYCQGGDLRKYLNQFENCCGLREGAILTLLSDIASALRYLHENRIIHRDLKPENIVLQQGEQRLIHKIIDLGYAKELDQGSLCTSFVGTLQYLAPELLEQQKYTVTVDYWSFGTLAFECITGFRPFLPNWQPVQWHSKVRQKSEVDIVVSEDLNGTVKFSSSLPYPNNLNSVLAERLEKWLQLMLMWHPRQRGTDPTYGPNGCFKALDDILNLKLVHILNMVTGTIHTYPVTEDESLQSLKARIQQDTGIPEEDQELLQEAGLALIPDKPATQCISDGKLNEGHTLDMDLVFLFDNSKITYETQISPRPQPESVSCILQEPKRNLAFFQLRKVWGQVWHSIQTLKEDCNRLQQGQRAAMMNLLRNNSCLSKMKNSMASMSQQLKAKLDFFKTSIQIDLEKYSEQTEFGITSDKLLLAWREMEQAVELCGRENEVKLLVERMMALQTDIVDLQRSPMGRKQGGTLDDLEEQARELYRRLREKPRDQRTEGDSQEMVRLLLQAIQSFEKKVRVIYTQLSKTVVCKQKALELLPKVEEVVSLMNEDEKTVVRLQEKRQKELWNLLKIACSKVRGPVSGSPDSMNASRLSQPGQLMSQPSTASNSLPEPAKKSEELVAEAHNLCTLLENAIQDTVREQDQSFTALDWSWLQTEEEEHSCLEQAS

CLL cells = assay: Viability of CLL cells cultured with or without rhBAFF and inhibitors (DiOC6/PI flow cytometry); assay type: cell-based, human; conditions: UTC 10 μM, 48 hours
Experimental: Freshly thawed CLL B cells were cultured at the concentration of 1×10^6/mL under various conditions. Determination of CLL cell viability in this study was based on the analysis of mitochondrial transmembrane potential (Δψm) using 3,3′-dehexyloxacarbocyamine iodine (DiOC6) and cell membrane permeability to PI, as described. For viability assays, 100 μl of the cell culture was collected at the indicated time points and transferred to polypropylene tubes containing 100 μl of 80 nmol/l DiOC6 (Molecular Probes) and 2 μg/ml PI in FACS buffer. The cells then were incubated at 37° C. for 15 minutes and analyzed within 30 minutes by flow cytometry using a FACSCalibur (Becton Dickinson). Fluorescence was recorded at 525 nm (FL-1) for DiOC6 and at 600 nm (FL-3) for PI.

## NC(=O)Nc1sc(-c2ccc(F)cc2)cc1C(N)=O [UTC, 5-(4-fluorophenyl)-2-ureido-thiophene-3 carboxylic acid amide]
[1]; 8 donors
  survival/viability of isolated normal B cells cultured without rhBAFF: did not have any effect on survival of isolated normal B cells; also recorded: no significant difference
[1]; rhBAFF 50 ng/ml
  effect on pro-survival effect of exogenous rhBAFF on normal B cells: could partially block the pro-survival effect of exogenous rhBAFF
[2]; anti-BR3 10 μg/ml
  inhibition of BAFF-induced translocation of p65 to the nucleus: inhibited BAFF induced nuclear translocation of p65
[2]; anti-BR3 or BR3-Fc 10 μg/ml
  inhibition of rhBAFF-induced phosphorylation of IκBα: inhibited phosphorylation of IκBα
IKK-2 (IKKβ); p38α, p38β, p38γ, p38δ, MAPKAPK2, MKK1, MAPK2, COX-1, COX-2, JNK1
  selectivity for IKK-2 versus the other ten kinases: more than 550 fold
IKK-2 (IKKβ)
  selectivity for IKK-2 versus IKK-1: 22 fold
  selectivity for IKK-2 versus JNK3: 200 fold
CLL cells; 8 patients
  viability of CLL cells versus medium alone: significantly lower than that of CLL cells cultured with medium alone
CLL cells; rhBAFF 50 ng/ml, anti-BR3 or BR3-Fc 10 μg/ml
  effect on rhBAFF-enhanced survival/viability of CLL cells: significantly inhibited the capacity of rhBAFF to support CLL cell survival
